This note sets out measurements from US20240335431A1, “1-H-PYRROLO[2,3-c]PYRIDINE COMPOUNDS” (Acerta Pharma B.V., priority 2023, published 2024).

SMILES strings stand for the structures.

One series relates to MV4;11 cells. As to the kind of experiment: Proliferation assay, MV4;11 (CellTiter-Glo, 7 days). It counts as cell-based, human. Conditions: Homo sapiens, MV4-11, 168 h, read-out: MV-4-11 IC50. The protocol: (§1) The anti-proliferative effect of compounds was tested in human leukaemia cell lines. The cell lines […] and MV4; 11 each harbor an MLL translocation expressing the MLL fusion proteins MLL-AF9 and MLL-AF4, respectively. Each also express the wildtype protein from the second allele. OCI-AML3 cells carrying the NPM1c gene mutation were also tested.
(§2) MOLM-13 and HEL cells were cultured in RPMI 1640 (Gibco) supplemented with 10% FBS (Gibco) and 1% Pen/Strep (Gibco). MV4; 11 cells were cultured in IMDM (Gibco) supplemented with 10% FBS (Gibco) and 1% Pen/Strep (Gibco). OCI-AML3 cells were cultured in MEMa (Gibco) supplemented with 20% FBS (Gibco) and 1% Pen/Strep (Gibco).
(§3) To assess proliferative effects, 125 MOLM-13 cells, 300 MV4; 11 cells, 75 OCI-AML3 cells, and 200 HEL cells were seeded in 40 μL media per well in 384-well ViewPlates (Perkin Elmer, 6007480). Cell seeding numbers were chosen based on growth curves to ensure linear growth throughout the experiments. Test compounds were added at 3.16-fold serial dilutions in DMSO from […] and DMSO content was normalized to 0.1%. Cells were incubated for 7 days at 37° C. and 5% CO2. A day 0 plate was seeded for each cell line and used as a standard control.
(§4) To measure cell viability, CellTiter-Glo 2.0 (Promega, G9242) luminescent growth indicator was used. 10 μL CellTiter-Glo reagent was added per well. Plates were placed on a plate shaker for 2 minutes in the dark and left to incubate off the shaker for another 8 minutes in the dark, for a total of 10 minutes. Plates were read using an EnVision plate reader (Perkin Elmer) using the Luminescence aperture and a measurement time of 0.1 second.
(§5) Data were analyzed in Genedata Screener®. IC50 values were determined by plotting % inhibition versus log compound concentration and using a one site dose response model. Raw data signals were normalized using 0.1% DMSO media only as background control, 0.1% DMSO with cells no compound as 100% viability (maximum signal), and day 0 0.1% DM with cells no compound as 0% viability (minimum signal).
On the technique in general: In ATP-based viability assays light output follows the ATP content of the culture.

In the next series the test system is MOLM-13 cells. As to the kind of experiment: Proliferation assay, MOLM-13 (CellTiter-Glo, 7 days). It counts as cell-based, human. Conditions: Homo sapiens, MOLM-13, 168 h. As to the method:
as §1, §2, §3, §4, §5

The nature of series [1]: Human liver microsomes (HLMs) intrinsic clearance assay. The note with it: human, microsomes, pH 7.4, HLM CLint. The series is classed as in vitro ADME. As to the method: Human liver microsomes (HLMs) were obtained from Corning (UltraPool 150 donors) at a concentration of 20 mg/mL protein. HLMs were stored at −80° C. until use and prior to use, thawed in a 37° C. water bath and then stored on wet ice. DMSO and NADPH were sourced from Solarbio S&T Co Ltd.
2 mL of 10 mM DMSO stock solutions of test compound were added to 198 mL acetonitrile to produce […] concentration. 1325 mL of 20 mg/mL HLM were added to 22260 mL of phosphate buffer to produce the HLM mixture. An 8.334 mg/mL solution of NADPH was prepared in 100 mmol/L pH 7.4 phosphate buffer.
222.5 mL of the HLM mixture and 25 mL of the 10 mM NADPH were added into the incubation plates (1 mL 96 well deep well plate from Thermo). The mixture was vortexed for 10 seconds at 1000 rpm. The incubation plate was pre-warmed in a water bath at 37° C. for 8 minutes. 2.5 mL of the […] stocks of test compound was added to initiate the reaction. The mix was vortexed for 12 seconds at 1000 rpm and incubated at 37° C. The incubation mixture (250 mL) contained 1 mg/mL HLM, 1 mmol/L NADPH and […].
The reaction was quenched by transferring 20 mL of the incubation mixture at 0.5, 5, 10, 15, 20 and 30 minutes into the quenching plate containing 100 mL of cold stop solution (acetonitrile containing internal standards). The plate was vortexed at 800 rpm for 2 minutes.
The quenching plates were centrifuged for 20 minutes at 4000 rpm and 4° C. 40 mL of the supernatant was transferred into a 96-well analysis plate containing 160 mL of water. The analysis plate was shaken at 1000 rpm for 2 minutes and the samples analysed by LC-MS/MS.
Peak areas were determined from extracted ion chromatograms. Percent parent remaining was calculated from peak area of test compound. The slope value, k, was determined by linear regression of the natural logarithm of percent parent remaining versus incubation time. The in vitro half-life (t1/2) was determined from the slope value by the equation: […]
Conversion of the in vitro half-life (min) into in vitro CLint (mL/min/mg proteins) was completed using the equation: […]
A general note: Liver microsomes are a subcellular fraction often used to study metabolism.

In another series the test system is OCI-AML3 cells. As to the kind of experiment: Proliferation assay, OCI-AML3 (CellTiter-Glo, 7 days). The series is classed as cell-based, human. Conditions: Homo sapiens, OCI-AML-3, 168 h. As to the method:
as §1, §2, §3, §4, §5

A further series has as its system HEL cells. The series is described as follows: Proliferation assay, HEL control cell line (CellTiter-Glo, 7 days). Conditions: Homo sapiens, HEL, 168 h. The series is classed as cell-based, human. The protocol:
as §1, §2, §3, §4, §5

As usually defined, the IC50 is the concentration that gives 50% inhibition. The microsomal CLint is a measure of how fast metabolising enzymes remove a compound, apart from limits set by blood flow. Lower therefore signals slow turnover. Regarding `C[C@@H]1COC[C@H](C)N1C(=O)c1cc(F)ccc1-n1cc(C(=O)C2CCN(C(=O)[C@H]3N[C@@H]4CC[C@H]3C4)CC2)c2ccncc21` [Example 35, (1-((1R,3S,4S)-2-Azabicyclo[2.2.1]heptane-3-carbonyl)piperidin-4-yl)(1-(2-((3R,5S)-3,5-dimethylmorpholine-4-carbonyl)-4-fluorophenyl)-1H-pyrrolo[2,3-c]pyridin-3-yl)methanone], the IC50 in the series on MV4;11 cells was 146 nM; in the series on MOLM-13 cells, 297 nM; in the series on OCI-AML3 cells it was 412 nM; in the series with HEL cells it was above 10 µM. In series [1], this compound had an intrinsic clearance (microsomal CLint) at 1 µM of 5 µL/min/mg.

With `CC(C)c1ccccc1-c1cc(F)ccc1-n1cc(C(=O)C2CCN(C(=O)[C@H]3N[C@@H]4CC[C@H]3C4)CC2)c2ccncc21` [Example 39, (1-((1R,3S,4S)-2-Azabicyclo[2.2.1]heptane-3-carbonyl)piperidin-4-yl)(1-(5-fluoro-2′-isopropyl-[1,1′-biphenyl]-2-yl)-1H-pyrrolo[2,3-c]pyridin-3-yl)methanone], the 50% inhibitory concentration (IC50) in the series with MV4;11 cells is 31 nM; in the series with MOLM-13 cells, 65 nM; in the series on OCI-AML3 cells it was 47 nM; in the series on HEL cells, 6.9 µM. Also, the intrinsic metabolic clearance (microsomal CLint) at 1 µM in series [1] is 259 µL/min/mg.
